In one assay the target is c-Kit (Homo sapiens, UniProt P10721). Kind of assay: c-Kit biochemical assay (AlphaScreen). In outline: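 Kinase, compound, ATP and biotinylated poly(Glu,Tyr) 4:1 reacted 1 hr at ambient temperature; quenched with EDTA buffer (pH 7.4) containing streptavidin donor and anti-phosphotyrosine PY100 acceptor beads, incubated 16 hr, then AlphaScreen signal read to give IC50.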
A general note: Alpha assays give light when donor and acceptor beads are brought close together.

For the next assay, the target named is T1, flt-3 (Homo sapiens, UniProt P36888).
T1 construct: baculovirus expressed human Flt-3 kinase domain R571-S993
T1 sequence (P36888 571-993): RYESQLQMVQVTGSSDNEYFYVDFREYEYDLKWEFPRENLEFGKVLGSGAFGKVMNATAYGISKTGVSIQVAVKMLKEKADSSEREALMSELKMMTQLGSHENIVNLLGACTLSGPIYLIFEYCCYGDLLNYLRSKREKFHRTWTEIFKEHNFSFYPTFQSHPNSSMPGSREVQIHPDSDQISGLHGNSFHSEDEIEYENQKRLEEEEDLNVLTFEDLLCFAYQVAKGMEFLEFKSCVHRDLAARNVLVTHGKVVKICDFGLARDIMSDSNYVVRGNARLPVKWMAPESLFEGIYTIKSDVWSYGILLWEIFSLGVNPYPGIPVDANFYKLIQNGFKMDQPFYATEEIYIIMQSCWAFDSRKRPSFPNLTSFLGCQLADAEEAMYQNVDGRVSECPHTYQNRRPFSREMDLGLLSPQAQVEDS
Nature of the assay: flt-3 Luciferase-Coupled Chemiluminescent Kinase assay (LCCA). Type of assay: biochemical. In outline: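 Baculovirus-expressed human Flt-3 kinase domain (R571-S993, 5 nM) was reacted with 5 μM ATP and 3 μM poly-EY in Tris pH 7.5 buffer with MgCl2/MnCl2 for 3 h at ambient temperature. Remaining ATP was read by luciferase-luciferin chemiluminescence, with ATP consumption standardized to 25-45%, for IC50.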

The target in the next assay is T2, EphB4 (Homo sapiens, UniProt P54760).
T2 sequence (P54760 16-987): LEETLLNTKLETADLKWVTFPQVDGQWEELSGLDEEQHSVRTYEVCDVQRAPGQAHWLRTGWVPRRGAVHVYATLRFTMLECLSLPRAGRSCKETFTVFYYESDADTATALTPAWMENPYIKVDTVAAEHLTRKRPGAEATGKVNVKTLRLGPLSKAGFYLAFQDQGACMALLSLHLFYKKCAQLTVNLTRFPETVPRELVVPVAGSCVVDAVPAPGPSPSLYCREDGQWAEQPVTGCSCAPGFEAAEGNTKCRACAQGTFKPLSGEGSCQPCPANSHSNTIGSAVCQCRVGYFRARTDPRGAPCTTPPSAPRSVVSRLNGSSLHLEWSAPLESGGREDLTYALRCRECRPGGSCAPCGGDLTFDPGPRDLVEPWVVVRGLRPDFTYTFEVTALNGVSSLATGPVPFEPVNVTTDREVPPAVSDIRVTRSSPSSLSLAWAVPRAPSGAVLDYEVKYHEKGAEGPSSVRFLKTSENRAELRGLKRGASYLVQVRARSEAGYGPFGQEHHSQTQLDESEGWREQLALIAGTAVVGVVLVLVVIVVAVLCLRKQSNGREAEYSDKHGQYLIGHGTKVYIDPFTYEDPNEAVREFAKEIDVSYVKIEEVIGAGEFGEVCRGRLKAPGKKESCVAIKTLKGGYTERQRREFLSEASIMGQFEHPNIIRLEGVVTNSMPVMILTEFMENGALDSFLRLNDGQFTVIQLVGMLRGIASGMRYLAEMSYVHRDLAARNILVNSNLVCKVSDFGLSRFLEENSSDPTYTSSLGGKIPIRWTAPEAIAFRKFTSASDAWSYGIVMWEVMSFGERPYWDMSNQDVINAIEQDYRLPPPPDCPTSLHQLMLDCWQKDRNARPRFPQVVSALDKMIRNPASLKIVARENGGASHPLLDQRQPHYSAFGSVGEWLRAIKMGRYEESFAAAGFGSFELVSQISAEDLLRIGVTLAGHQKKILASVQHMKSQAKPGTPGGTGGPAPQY
Kind of assay: EphB4 kinase inhibition assay. Format: biochemical. In short, it runs like this: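 ATP near each kinase's KM; 10-point dose-response fitted to a four-parameter equation for IC50. Formats: γ33P-ATP transfer to plate-coated substrate (1.5-2.5 h, ambient, scintillation), luciferase-coupled ATP-consumption read-out (2-4 h, 25-45% ATP consumed), or AlphaScreen with biotinylated poly(Glu,Tyr) 4:1 (1 h).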

The next assay addresses EGFR (Homo sapiens, UniProt P00533). Nature of the assay: EGFR kinase inhibition assay. Format: biochemical.

Sequence of EGFR (P00533 25-1210, species assumed): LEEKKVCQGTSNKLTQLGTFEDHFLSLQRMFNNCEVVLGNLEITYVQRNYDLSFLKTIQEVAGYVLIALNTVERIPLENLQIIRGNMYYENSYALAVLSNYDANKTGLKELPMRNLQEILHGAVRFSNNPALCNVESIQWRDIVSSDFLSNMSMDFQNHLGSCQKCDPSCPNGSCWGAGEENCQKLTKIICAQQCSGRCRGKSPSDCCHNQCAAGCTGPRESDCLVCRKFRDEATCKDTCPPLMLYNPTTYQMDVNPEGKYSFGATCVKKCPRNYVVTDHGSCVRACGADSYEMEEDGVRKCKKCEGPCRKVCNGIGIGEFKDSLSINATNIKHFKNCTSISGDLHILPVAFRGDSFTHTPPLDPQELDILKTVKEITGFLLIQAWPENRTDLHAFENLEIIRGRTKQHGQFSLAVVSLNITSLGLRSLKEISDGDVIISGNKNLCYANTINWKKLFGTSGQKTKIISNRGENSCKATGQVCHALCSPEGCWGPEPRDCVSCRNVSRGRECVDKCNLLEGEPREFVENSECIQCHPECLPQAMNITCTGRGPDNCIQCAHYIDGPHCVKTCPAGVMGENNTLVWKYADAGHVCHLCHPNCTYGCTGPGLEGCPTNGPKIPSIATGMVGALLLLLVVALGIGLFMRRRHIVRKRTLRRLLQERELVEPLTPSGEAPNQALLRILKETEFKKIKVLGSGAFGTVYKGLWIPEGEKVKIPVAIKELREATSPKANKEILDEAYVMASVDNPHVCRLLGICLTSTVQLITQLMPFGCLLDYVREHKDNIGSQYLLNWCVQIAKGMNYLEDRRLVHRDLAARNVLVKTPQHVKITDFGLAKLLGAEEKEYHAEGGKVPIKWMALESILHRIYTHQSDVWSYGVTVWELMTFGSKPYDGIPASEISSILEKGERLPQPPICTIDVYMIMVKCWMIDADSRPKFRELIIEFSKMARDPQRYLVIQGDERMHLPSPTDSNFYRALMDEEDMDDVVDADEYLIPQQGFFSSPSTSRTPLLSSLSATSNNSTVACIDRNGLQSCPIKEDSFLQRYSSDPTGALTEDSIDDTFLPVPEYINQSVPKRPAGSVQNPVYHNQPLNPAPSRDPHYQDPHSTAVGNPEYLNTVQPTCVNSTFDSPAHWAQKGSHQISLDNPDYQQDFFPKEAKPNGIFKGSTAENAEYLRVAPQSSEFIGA
Sequence of c-Kit (P10721 26-976): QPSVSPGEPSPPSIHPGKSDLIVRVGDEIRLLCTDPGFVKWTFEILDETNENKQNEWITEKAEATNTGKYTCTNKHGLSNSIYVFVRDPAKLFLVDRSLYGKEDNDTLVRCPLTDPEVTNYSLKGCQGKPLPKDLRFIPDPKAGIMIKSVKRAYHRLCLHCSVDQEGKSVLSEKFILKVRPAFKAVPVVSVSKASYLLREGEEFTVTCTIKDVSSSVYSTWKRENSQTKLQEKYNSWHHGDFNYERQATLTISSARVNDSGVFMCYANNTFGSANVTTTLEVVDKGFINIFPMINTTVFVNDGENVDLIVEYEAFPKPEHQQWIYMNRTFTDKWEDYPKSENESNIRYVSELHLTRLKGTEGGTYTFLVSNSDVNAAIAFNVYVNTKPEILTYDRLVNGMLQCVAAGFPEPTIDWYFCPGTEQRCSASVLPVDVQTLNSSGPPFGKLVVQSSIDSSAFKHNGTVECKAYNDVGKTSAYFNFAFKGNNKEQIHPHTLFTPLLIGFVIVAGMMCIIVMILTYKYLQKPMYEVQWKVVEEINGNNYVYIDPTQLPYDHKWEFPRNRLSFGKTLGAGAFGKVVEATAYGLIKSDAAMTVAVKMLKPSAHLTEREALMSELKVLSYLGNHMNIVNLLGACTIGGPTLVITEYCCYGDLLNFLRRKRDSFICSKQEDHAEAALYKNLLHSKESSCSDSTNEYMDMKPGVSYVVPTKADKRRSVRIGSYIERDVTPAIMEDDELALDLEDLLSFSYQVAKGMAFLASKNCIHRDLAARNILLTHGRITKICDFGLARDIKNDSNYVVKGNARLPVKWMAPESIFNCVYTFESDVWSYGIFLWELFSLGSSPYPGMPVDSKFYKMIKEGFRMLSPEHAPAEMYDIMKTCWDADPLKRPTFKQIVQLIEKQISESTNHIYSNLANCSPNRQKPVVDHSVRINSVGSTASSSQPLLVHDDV

Usually IC50 stands for the concentration that gives 50% inhibition. The low end stands for inhibition by little substance, the high end for a need for much substance. `CN1CCN(c2ccc3[nH]c(-c4cc(-c5ccc(NC(=O)Nc6ccccc6F)cc5)[nH]n4)nc3c2)CC1` [Entry 35, N-(2-fluorophenyl)-N′-(4-{3-[5-(4-methylpiperazin-1-yl)-1H-benzimidazol-2-yl]-1H-pyrazol-5-yl}phenyl)urea]: the IC50 was under 50 nM at c-Kit, under 50 nM against flt-3, over 5000 nM against EphB4 and over 5000 nM against EGFR.

Regarding `Oc1ccc(/C=C/c2cc(/C=C/c3ccccc3)[nH]n2)cc1` [Entry 36, 4-((E)-2-{5-[(E)-2-phenylethenyl]-1H-pyrazol-3-yl}ethenyl)phenol], the IC50 against c-Kit is under 50 nM; against flt-3, under 50 nM; against EphB4 it was over 5000 nM; against EGFR, over 5000 nM.

Take `COc1cc(/C=C/c2cc(/C=C/c3ccccc3)[nH]n2)ccc1O` [Entry 37, 2-(methyloxy)-4-((E)-2-{5-[(E)-2-phenylethenyl]-1H-pyrazol-3-yl}ethenyl)phenol]: the IC50 against c-Kit was under 50 nM; against flt-3, under 50 nM; at EphB4 it was 500 to 5000 nM; on EGFR, over 5000 nM.

On to `CN1CCN(c2ccc3[nH]c(-c4cc(-c5ccc(NC(=O)Nc6ccccc6)cc5)[nH]n4)nc3c2)CC1` [Entry 39, N-(4-{3-[5-(4-methylpiperazin-1-yl)-1H-benzimidazol-2-yl]-1H-pyrazol-5-yl}phenyl)-N′-phenylurea], for which the IC50 against c-Kit is 50 to 500 nM; against flt-3, under 50 nM; on EphB4, over 5000 nM; against EGFR it was over 5000 nM.

Consider `CN1CCN(c2ccc(-c3cc(-c4ccc(NC(=O)Nc5ccc(F)cc5F)cc4)[nH]n3)cc2)CC1` [Entry 41, N-(2,4-difluorophenyl)-N′-(4-{3-[4-(4-methylpiperazin-1-yl)phenyl]-1H-pyrazol-5-yl}phenyl)urea], for which the IC50 is 50 to 500 nM against c-Kit, under 50 nM at flt-3, over 5000 nM at EphB4 and over 5000 nM against EGFR.

Turning to `CN1CCN(c2ccc(-c3cc(-c4ccc(NC(=O)Nc5ccc6c(c5)OCCO6)cc4)n[nH]3)cc2)CC1` [Entry 42, N-(2,3-dihydro-1,4-benzodioxin-6-yl)-N′-(4-{5-[4-(4-methylpiperazin-1-yl)phenyl]-1H-pyrazol-3-yl}phenyl)urea], the concentration for half-maximal inhibition (IC50) was 50 to 500 nM against c-Kit, under 50 nM on flt-3, over 5000 nM at EphB4 and over 5000 nM at EGFR.

Take `COc1cc(/C=C/c2cc(/C=C/c3ccc(F)cc3)n[nH]2)ccc1O` [Entry 44, 4-((E)-2-{3-[(E)-2-(4-fluorophenyl)ethenyl]-1H-pyrazol-5-yl}ethenyl)-2-(methyloxy)phenol]: the IC50 against c-Kit was 50 to 500 nM; on flt-3, under 50 nM; against EphB4, over 5000 nM; against EGFR, over 5000 nM.

In the case of `Oc1ccc(/C=C/c2cc(-c3cc4ccccc4o3)n[nH]2)cc1` [Entry 45, 4-{(E)-2-[3-(1-benzofuran-2-yl)-1H-pyrazol-5-yl]ethenyl}phenol], the IC50 on c-Kit is 50 to 500 nM; against flt-3 it was 50 to 500 nM; against EphB4, over 5000 nM; against EGFR it was over 5000 nM.

Consider `CN1CCN(c2ccc(-c3cc(-c4ccc(NC(=O)C(=O)NCCc5ccccc5)cc4)[nH]n3)cc2)CC1` [Entry 46, N-(4-{3-[4-(4-methylpiperazin-1-yl)phenyl]-1H-pyrazol-5-yl}phenyl)-N′-(2-phenylethyl)ethanediamide], for which the IC50 against c-Kit was 50 to 500 nM; at flt-3 it was over 5000 nM; on EphB4, 500 to 5000 nM; against EGFR, over 5000 nM.

As to `Oc1ccc(/C=C/c2cc(-c3nc4ccccc4[nH]3)n[nH]2)cc1` [Entry 47, 4-{(E)-2-[3-(1H-benzimidazol-2-yl)-1H-pyrazol-5-yl]ethenyl}phenol], the IC50 against c-Kit is 50 to 500 nM; against flt-3, under 50 nM; against EphB4 it was 500 to 5000 nM; at EGFR, over 5000 nM.

`COc1cc(/C=C/c2cc(/C=C/c3ccc(Cl)cc3)n[nH]2)ccc1O` [Entry 48, 4-((E)-2-{3-[(E)-2-(4-chlorophenyl)ethenyl]-1H-pyrazol-5-yl}ethenyl)-2-(methyloxy)phenol]: the IC50 against c-Kit is 50 to 500 nM; at flt-3, under 50 nM; at EphB4 it was over 5000 nM; at EGFR, over 5000 nM.

In the case of `Oc1ccc(/C=C/c2cc(-c3cc4ccccc4s3)n[nH]2)cc1` [Entry 49, 4-{(E)-2-[3-(1-benzothien-2-yl)-1H-pyrazol-5-yl]ethenyl}phenol], the IC50 was 50 to 500 nM against c-Kit, 50 to 500 nM against flt-3, over 5000 nM against EphB4 and over 5000 nM on EGFR.

With `O=C(Nc1ccc(-c2cc(-c3ccccc3)n[nH]2)cc1)Nc1ccc(Cl)c(C(F)(F)F)c1` [Entry 50, N-[4-chloro-3-(trifluoromethyl)phenyl]-N′-[4-(3-phenyl-1H-pyrazol-5-yl)phenyl]urea], the IC50 on c-Kit was 50 to 500 nM; against flt-3 it was 50 to 500 nM; against EphB4 it was over 5000 nM; against EGFR, over 5000 nM.

With `CN1CCN(c2ccc(-c3cc(/C=C/c4ccc(O)cc4)[nH]n3)cc2)CC1` [Entry 51, 4-((E)-2-{3-[4-(4-methylpiperazin-1-yl)phenyl]-1H-pyrazol-5-yl}ethenyl)phenol], the IC50 is 50 to 500 nM against c-Kit, under 50 nM against flt-3, over 5000 nM on EphB4 and over 5000 nM at EGFR.

As for `Cc1ccc(F)cc1NC(=O)Nc1ccc(-c2cc(-c3ccc(N4CCN(C)CC4)cc3)[nH]n2)cc1` [Entry 53, N-(5-fluoro-2-methylphenyl)-N′-(4-{5-[4-(4-methylpiperazin-1-yl)phenyl]-1H-pyrazol-3-yl}phenyl)urea], the IC50 against c-Kit is 50 to 500 nM; against flt-3, 50 to 500 nM; against EphB4, over 5000 nM; on EGFR, over 5000 nM.

For `Oc1ccc(/C=C/c2cc(-c3ccccc3)n[nH]2)cc1` [Entry 54, 4-[(E)-2-(3-phenyl-1H-pyrazol-5-yl)ethenyl]phenol], the IC50 against c-Kit was 50 to 500 nM; against flt-3, under 50 nM; against EphB4 it was over 5000 nM; against EGFR, over 5000 nM.

Regarding `COc1cc(/C=C/c2cc(-c3ccccc3)[nH]n2)ccc1O` [Entry 55, 2-(methyloxy)-4-[(E)-2-(5-phenyl-1H-pyrazol-3-yl)ethenyl]phenol], the IC50 against c-Kit is 50 to 500 nM; against flt-3 it was 50 to 500 nM; at EphB4 it was over 5000 nM; against EGFR, over 5000 nM.

Take `Oc1ccc(/C=C/c2cc(-c3ccc4ccccc4c3)[nH]n2)cc1` [Entry 56, 4-[(E)-2-(5-naphthalen-2-yl-1H-pyrazol-3-yl)ethenyl]phenol]: the IC50 at c-Kit was 50 to 500 nM; at flt-3 it was 50 to 500 nM; on EphB4 it was over 5000 nM; against EGFR it was over 5000 nM.

As to `Oc1ccc(/C=C/c2cc(-c3ccccc3F)[nH]n2)cc1` [Entry 57, 4-{(E)-2-[5-(2-fluorophenyl)-1H-pyrazol-3-yl]ethenyl}phenol], the IC50 was 50 to 500 nM at c-Kit, 50 to 500 nM against flt-3, over 5000 nM against EphB4 and over 5000 nM on EGFR.
